Results as given in patent US6355799B1, “Substituted benzene compounds, process for their preparation, and herbicidal and defoliant compositions containing them” (ISK Americas Incorporated, priority 1997, dated 2002).
Where two headings read alike, the source gives them in different places.

Assays:
Experiment in all cases: Post-emerge test, greenhouse herbicide activity screening
Assay type in all cases: in vivo
[1] = tested on: redroot pigweed (Amaranthus retroflexus, AMARE); conditions: Amaranthus retroflexus, post-emergence, 336 h, read-out: Post-emerge Herbicidal Activity AMARE; for pest or weed control at 63 g/ha: 63 g ai/ha; for pest or weed control at 250 g/ha: 250 g ai/ha
In short: (§1)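 Compounds in acetone were track-sprayed at 15-1000 g ai/ha (187 l/ha) on sandy loam pots: pre-emerge one day after seeding, post-emerge at 2-3 leaf stage with 0.25% v/v non-ionic surfactant. Phytotoxicity was rated 14 days later on a 0 (no damage) to 100 (complete death) scale.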

[2] = tested on: lambsquarters (Chenopodium album, CHEAL); conditions: Chenopodium album, post-emergence, 336 h, post-emerge, phytotoxicity rating 0-100 at 14 days after application, read-out: Post-emerge Herbicidal Activity CHEAL; for pest or weed control at 63 g/ha: 63 g ai/ha; for pest or weed control at 250 g/ha: 250 g ai/ha
In short: as §1

[3] = tested on: velvetleaf (Abutilon theophrasti, ABUTH); conditions: Abutilon theophrasti, post-emergence, 336 h, read-out: Post-emerge Herbicidal Activity ABUTH; for pest or weed control at 63 g/ha: 63 g ai/ha; for pest or weed control at 250 g/ha: 250 g ai/ha
In short: as §1

[4] = tested on: barnyardgrass (Echinochloa crus-galli, ECHCG); conditions: Echinochloa crus-galli, post-emergence, 336 h, read-out: Post-emerge Herbicidal Activity ECHCG; for pest or weed control at 63 g/ha: 63 g ai/ha; for pest or weed control at 250 g/ha: 250 g ai/ha
In short: as §1

[5] = post-emerge, phytotoxicity rating 0-100 at 14 days after application
[6] = phytotoxicity rating 0-100 (0 no damage, 100 complete death), 14 days after application

Row | SMILES | pest or weed control at 63 g/ha [1, 5] | pest or weed control at 250 g/ha [1, 5] | pest or weed control at 63 g/ha [2] | pest or weed control at 250 g/ha [2] | pest or weed control at 63 g/ha [3, 5] | pest or weed control at 250 g/ha [3, 5] | pest or weed control at 63 g/ha [4, 5] | pest or weed control at 250 g/ha [4, 5] | pest or weed control at 63 g/ha [1, 6] | pest or weed control at 250 g/ha [1, 6] | pest or weed control at 63 g/ha [3, 6] | pest or weed control at 250 g/ha [3, 6] | pest or weed control at 63 g/ha [4, 6] | pest or weed control at 250 g/ha [4, 6]
1 | Cc1nn(-c2c(N)cc(Cl)cc2F)c(=O)n1C(F)F [Compound 6-22] | 70% | 100% | 50% | 70% | 60% | 80% | 0% | 0% | – | – | – | – | – | –
2 | Cn1c(C(F)(F)F)cc(=O)n(-c2c(F)cc(Cl)c(OC(F)F)c2N)c1=O [Compound 1-38, 3-(2-amino-4-chloro-3-difluoromethoxy-6-fluorophenyl)-1-methyl-6-trifluoromethyl-2,4(1H, 3H)-pyrimidinedione] | – | – | – | – | – | – | – | – | 80% | 100% | 100% | 100% | 0% | 80%
3 | COc1c(Cl)cc(F)c(-n2nc(C)n(C(F)F)c2=O)c1NC(=O)c1ccc2ccccc2c1 [Compound 6-15] | 100% | 100% | 100% | 100% | 100% | 100% | 40% | 70% | – | – | – | – | – | –
4 | COc1c(Cl)cc(Cl)c(-n2nc(C)n(C(F)F)c2=O)c1NC(=O)c1ccc2ccccc2c1 [Compound 6-17] | 60% | 70% | 90% | 90% | 90% | 100% | 0% | 30% | – | – | – | – | – | –
5 | COc1c(Cl)cc(F)c(N2C(=O)c3ccccc3C2=O)c1NC(=O)c1ccc2ccccc2c1 [Compound 13-3, N-[4-chloro-6-fluoro-3-methoxy-2-(2-naphthoyl)aminophenyl]phthalimide] | 90% | 90% | 100% | 100% | 100% | 90% | 0% | 20% | – | – | – | – | – | –
6 | Cc1nn(-c2c(Cl)cc(Cl)cc2NC(=O)c2ccc3ccccc3c2)c(=O)n1C(F)F [Compound 6-16] | 100% | 90% | 100% | 100% | 100% | 100% | 20% | 40% | – | – | – | – | – | –
7 | COc1c(Cl)cc(F)c(-c2nn(C)c(C(F)(F)F)c2Cl)c1NC(=O)C=Cc1ccccc1 [Compound 7-15] | 100% | 100% | 100% | 100% | 100% | 99% | 0% | 10% | – | – | – | – | – | –
8 | COc1c(Cl)cc(F)c(-c2nn(C)c(C(F)(F)F)c2Cl)c1NC(=O)c1ccc2ccccc2c1 [Compound 7-14] | – | 70% | – | 90% | – | 95% | – | 10% | – | – | – | – | – | –
9 | CC(C)Oc1c(Cl)cc(F)c(N2C(=O)C3=C(CCCC3)C2=O)c1N [Compound 8-4, N-(2-amino-4-chloro-6-fluoro-3-isopropyloxyphenyl)tetrahydrophthalimide] | 70% | 90% | 70% | 90% | 60% | 80% | 0% | 0% | – | – | – | – | – | –
